Experimental data reported in ChEMBL document CHEMBL4190325, “[…] Extracts as Tools to Balance Estrogenic and Chemopreventive Activities of Botanicals for Women's Health” (J Nat Prod, 2017).

Tests used:
cells = settings: Mus musculus, Hepa-1c1c7, 48 h
Description: Cytotoxicity against mouse Hepa1c1c7 cells after 48 hrs by crystal violet staining based assay

[1] = target: NAD(P)H dehydrogenase [quinone] 1 (Mus musculus) (UniProt Q64669)
Description: Induction of NQO1 activity in mouse Hepa1c1c7 cells after 48 hrs by MTT reduction assay

Ishikawa = test: cells; settings: Homo sapiens, 96 h
Description: Cytotoxicity against human Ishikawa cells after 96 hrs by SRB assay

Estrogen receptor = target: T1, Estrogen receptor (Homo sapiens, UniProt P03372); test: Estrogenic activity at estrogen receptor alpha in human Ishikawa cells assessed as induction of alkaline phosphatase activity using p-Nitrophenol phosphate as substrate pretreated for 96 hrs followed by substrate addition measured every 15 secs by scanning spectrophotometric analysis; format: cell-based
T1 sequence (P03372 whole entry): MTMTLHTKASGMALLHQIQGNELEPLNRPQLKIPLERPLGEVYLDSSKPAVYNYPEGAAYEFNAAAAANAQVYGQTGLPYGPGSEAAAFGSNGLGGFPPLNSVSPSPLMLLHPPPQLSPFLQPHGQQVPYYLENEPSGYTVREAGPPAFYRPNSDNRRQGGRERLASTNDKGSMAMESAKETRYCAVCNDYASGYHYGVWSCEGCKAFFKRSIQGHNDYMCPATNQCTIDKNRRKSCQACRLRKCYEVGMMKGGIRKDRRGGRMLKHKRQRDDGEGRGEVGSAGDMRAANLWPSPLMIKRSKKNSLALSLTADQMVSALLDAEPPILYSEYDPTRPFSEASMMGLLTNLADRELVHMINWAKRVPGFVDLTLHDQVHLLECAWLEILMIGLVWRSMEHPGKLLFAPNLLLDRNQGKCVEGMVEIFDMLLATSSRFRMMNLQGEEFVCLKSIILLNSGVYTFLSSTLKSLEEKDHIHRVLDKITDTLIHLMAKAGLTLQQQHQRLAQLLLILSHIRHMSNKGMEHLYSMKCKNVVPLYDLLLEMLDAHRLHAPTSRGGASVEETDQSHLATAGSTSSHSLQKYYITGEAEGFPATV

Sequence of NAD(P)H dehydrogenase [quinone] 1 (Mus musculus) (Q64669 whole entry): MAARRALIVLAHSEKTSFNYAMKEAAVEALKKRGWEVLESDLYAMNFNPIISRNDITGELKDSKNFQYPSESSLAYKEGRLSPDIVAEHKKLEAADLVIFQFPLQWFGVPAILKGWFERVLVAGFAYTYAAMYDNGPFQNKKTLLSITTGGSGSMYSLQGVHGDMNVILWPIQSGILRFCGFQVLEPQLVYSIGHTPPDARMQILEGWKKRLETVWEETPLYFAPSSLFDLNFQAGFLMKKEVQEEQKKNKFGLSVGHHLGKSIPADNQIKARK

Compound | IC50 (cells) [µM] | CD [1] [µM] | IC50 (Ishikawa) [µM] | EC50 (Estrogen receptor; read-out: EC50) [µM] | EC50 (Estrogen receptor; ishikawa)
CC(C)=CCc1c(O)cc2c(c1O)C(=O)CC(c1ccc(O)cc1)O2 (stereo unspecified) | > 20 | > 30 | > 5 | 0.4 | –
O=c1cc(-c2ccc(Br)cc2)oc2ccccc12 | 0.7 to 166 | – | – | – | –
CC(C)=CCc1c(O)cc(O)c2c1O[C@H](c1ccc(O)cc1)CC2=O | > 20 | > 30 | 19.1 | – | –
COc1cc(O)c(CC=C(C)C)c2c1C(=O)CC(c1ccc(O)cc1)O2 (stereo unspecified) [ISOXANTHOHUMOL] | 30.7 | > 50 | 24.9 | 1.4 | –
COc1cc(O)c(CC=C(C)C)c(O)c1C(=O)/C=C/c1ccc(O)cc1 [XANTHOHUMOL] | 17.5 | 1.3 | 4.2 | – | Not Active
